Source: patent US3954985A, “Method for inhibiting bacterial growth with certain selected 3-chloro-tetrahydro-1,3-oxazines or oxazolidines” (INTERx Research Corporation, priority 1975, dated 1976)
Values joined by “and” are separate entries in the source; they are usually repeats but may differ in a detail not shown here. Equal values may be shown once. Where a name gives a salt, the structure may show the parent alone.

Assay: Stability in the neat state at 40°C (positive chlorine by thiosulfate titration)
Assay type: physicochemical
Conditions: HYDROCHLORIDE
From the text: ^a Weight of sample analyzed.
^b Volume of 10^^-2 N sodium thiosulfate required to titrate
the sample at time (T).
^c Percentage of positive chlorine in the sample analyzed.

For `CN1CCC2(CC1)OCC(C)(C)N2Cl` [3-CHLORO-2,2-[SPIRO-1'-METHYL-4'-PIPERIDINIUM]4,4-DIMETHYL-1,3-OXAZOLIDINE HYDROCHLORIDE], the “%Cl (percentage of positive chlorine in the sample analyzed)” value (0 days) was 13.7% and 13.1%, the “%Cl (percentage of positive chlorine in the sample analyzed)” value (1 day) was 12.3% and 12.5% and the “%Cl (percentage of positive chlorine in the sample analyzed)” value (2 days) was 12.3% and 11.9%. The “%Cl (percentage of positive chlorine in the sample analyzed)” value (3 days) was 12.5% and 12.2%, the “%Cl (percentage of positive chlorine in the sample analyzed)” value (4 days) was 12.1% and 12.3% and the “%Cl (percentage of positive chlorine in the sample analyzed)” value (5 days) was 12.3% and 12.4%. The “%Cl (percentage of positive chlorine in the sample analyzed)” value (7 days) was 12.2% and 12.1%, the “%Cl (percentage of positive chlorine in the sample analyzed)” value (10 days) was 11.9% and 11.8% and the “%Cl (percentage of positive chlorine in the sample analyzed)” value (14 days) was 12.1% and 11.8%. The “%Cl (percentage of positive chlorine in the sample analyzed)” value (21 days) was 12.0% and 12.1%, the “%Cl (percentage of positive chlorine in the sample analyzed)” value (28 days) was 11.5% and 11.6% and the “%Cl (percentage of positive chlorine in the sample analyzed)” value (35 days) was 11.8% and 11.6%. The “%Cl (percentage of positive chlorine in the sample analyzed)” value (51 days) was 9.5%.
